Test results taken from US10184933B2, “Compositions, systems and methods for gene expression noise drug screening and uses thereof” (priority 2013, dated 2019).
Structures can show the parent of a compound that is named as a salt. Where two headings read alike, the source gives them in different places.

Assays:
HIV-1 LTR promoter = type: cell-based
[1] = test system: latent HIV-1 in JLat 8.6 cells; type: cell-based
[2] = Pharmakon 1600 library, 10 uM, 24 hours, FIG. 10

Compound	identified as variability enhancer (VE) in noise screen (HIV-1 LTR promoter)	synergy in reactivation of HIV-1 latency [1]	identified as variability enhancer (VE) in noise screen (HIV-1 LTR promoter; [2])
CC(C)c1c(C(=O)Nc2ccccc2)c(-c2ccccc2)c(-c2ccc(F)cc2)n1CC[C@@H](O)C[C@@H](O)CC(=O)[O-].CC(C)c1c(C(=O)Nc2ccccc2)c(-c2ccccc2)c(-c2ccc(F)cc2)n1CC[C@@H](O)C[C@@H](O)CC(=O)[O-].[Ca+2] [V20, atorvastatin calcium]	variability enhancers	synergized	–
CC(C)(CO)[C@@H](O)C(=O)NCCC(=O)[O-].[Na+] [V22, pantothenic acid(d) na salt]	variability enhancers	synergized	–
NCCc1cc(O)c(O)cc1O [V25, oxidopamine hydrochloride]	–	synergized	variability enhancers
C[C@]12CC[C@H]3[C@@H](CC[C@@]45O[C@@H]4C(O)=C(C#N)C[C@]35C)[C@@H]1CC[C@@H]2O [V26, trilostane]	–	synergized	variability enhancers
Cc1cn[nH]c1 [V27, fomepizole hydrochloride]	–	synergized	variability enhancers
NC(=O)C[S+]([O-])C(c1ccccc1)c1ccccc1 (centres unmarked) [V28, modafinil]	–	synergized	variability enhancers
Cc1cccc(C)c1N=C1NCCCS1 [V29, Xylazine hydrochloride]	–	synergized	variability enhancers
O=C(Nc1ccccc1)OCC(CN1CCCCC1)OC(=O)Nc1ccccc1 (centres unmarked) [V30, diperodon hydrochloride]	–	synergized	variability enhancers
Cc1cc(CC(=O)O)n(C)c1C(=O)c1ccc(Cl)cc1 [V31, zomepirac sodium]	–	synergized	variability enhancers
c1ccc2[nH]c(-c3cscn3)nc2c1 [V33, thiabendazole]	–	synergized	variability enhancers
Cc1cc(C(C#N)c2ccc(Cl)cc2)c(Cl)cc1NC(=O)c1cc(I)cc(I)c1O (centres unmarked) [V34, closantel]	–	synergized	variability enhancers
COc1ccc(-c2ccc3cc(C(=O)O)ccc3c2)cc1C12CC3CC(CC(C3)C1)C2 [V36, adapalene]	–	synergized	variability enhancers
CC(C)(C)NC(=O)[C@H]1CC[C@H]2[C@@H]3CC[C@H]4NC(=O)C=C[C@]4(C)[C@H]3CC[C@]12C [V37, finasteride]	–	synergized	variability enhancers
CCN(CC)CCNC(=O)c1ccc(N)cc1 [V38, Procainamide hydrochloride]	–	synergized	variability enhancers
CC1=C(C(=O)O)N2C(=O)[C@@H](NC(=O)[C@H](N)c3ccc(O)cc3)[C@H]2SC1 [V40, cefadroxil]	–	synergized	variability enhancers
COc1cnc(NS(=O)(=O)c2ccc(N)cc2)nc1 [V41, sulfameter]	–	synergized	variability enhancers
Nc1ccc(S(=O)(=O)Nc2cnc3ccccc3n2)cc1 [V42, sulfaquinoxaline sodium]	–	synergized	variability enhancers
CC[C@H]1OC(=O)[C@H](C)[C@@H](O[C@H]2C[C@@](C)(OC)[C@@H](O)[C@H](C)O2)[C@H](C)[C@@H](O[C@@H]2O[C@H](C)C[C@H](N(C)C)[C@H]2O)[C@](C)(O)C[C@@H](C)CN(C)[C@H](C)[C@@H](O)[C@]1(C)O [V43, azithromycin]	–	synergized	variability enhancers
CO[C@@]1(NC(=O)Cc2cccs2)C(=O)N2C(C(=O)O)=C(COC(N)=O)CS[C@@H]21 [V46, cefoxitin sodium]	–	synergized	variability enhancers
CN1CCCN=C1COC(=O)C(O)(c1ccccc1)C1CCCCC1 (centres unmarked) [V47, oxyphencyclimine hydrochloride]	–	synergized	variability enhancers
CCN(CC)CC#CCOC(=O)C(O)(c1ccccc1)C1CCCCC1 (centres unmarked) [V48, oxybutynin chloride]	variability enhancers	synergized	–
C[N+]12CCC(CC1)C(OC(=O)C(O)(c1ccccc1)c1ccccc1)C2 (centres unmarked) [V49, clidinium bromide]	–	synergized	variability enhancers
CNCCC(Oc1ccc(C(F)(F)F)cc1)c1ccccc1 (centres unmarked) [V50, Fluoxetine hydrochloride]	variability enhancers	synergized	–

Compound	identified as variability enhancer (VE) in noise screen (HIV-1 LTR promoter)	synergy in reactivation of HIV-1 latency [1]	identified as variability enhancer (VE) in noise screen (HIV-1 LTR promoter; [2])
Cc1ccc(S(=O)(=O)NC(=O)NN2CCCCCC2)cc1 [V51, Tolazamide]	–	synergized	variability enhancers
COc1cc(C(=O)NCc2ccc(OCCN(C)C)cc2)cc(OC)c1OC [V52, trimethobenzamide hydrochloride]	–	synergized	variability enhancers
CCN(CC)CCNC(=O)c1cc(Cl)c(N)cc1OC [V53, Metoclopramide hydrochloride]	–	synergized	variability enhancers
Cc1cccc(N(C)C(=S)Oc2ccc3ccccc3c2)c1 [V54, tolnaftate]	–	synergized	variability enhancers
CN(C)CCC(c1ccc(Cl)cc1)c1ccccn1 (centres unmarked) [V58, chlorpheniramine maleate]	variability enhancers	synergized	–
O=C(O)CCCc1ccccc1 [V59, phenylbutyric acid]	variability enhancers	synergized	–
C#CCN(C)Cc1ccccc1 [V61, Pargyline hydrochloride]	–	synergized	variability enhancers
CCCc1nc2c(C)cc(-c3nc4ccccc4n3C)cc2n1Cc1ccc(-c2ccccc2C(=O)O)cc1 [V62, telmisartan]	–	synergized	variability enhancers
O=c1[nH]c(=O)n(Cl)c(=O)n1Cl [V63, troclosene potassium]	variability enhancers	synergized	–
Oc1ccc(O)cc1 [V76, hydroquinone]	variability enhancers	synergized	–
CO[C@H]1C[C@H](O[C@@H]2/C(C)=C/C[C@@H]3C[C@@H](C[C@]4(CC[C@H](C)[C@@H](C5CCCCC5)O4)O3)OC(=O)[C@@H]3C=C(C)/C(=N/O)[C@H]4OC/C(=C\C=C\[C@@H]2C)[C@]43O)O[C@@H](C)[C@@H]1O [V77, selamectin]	variability enhancers	synergized	–
N[C@@H](Cc1ccc(O)c(O)c1)C(=O)O [V78, levodopa]	–	synergized	variability enhancers
CC(C)[C@H](N)C(=O)OCC(CO)OCn1cnc2c(=O)nc(N)[nH]c21 (some centres unmarked) [V80, valganciclovir hydrochloride]	–	synergized	variability enhancers
CC(C)NCC(O)c1ccc(NS(C)(=O)=O)cc1 (centres unmarked) [V83, sotalol hydrochloride]	–	synergized	variability enhancers
COc1ccccc1OCCNCC(O)COc1cccc2[nH]c3ccccc3c12 (centres unmarked) [V84, carvedilol]	–	synergized	variability enhancers
O=C(O)[C@H]1/C(=C/CO)O[C@@H]2CC(=O)N21 [V85, clavulanate lithium]	–	synergized	variability enhancers
CNC(C)C(O)c1ccccc1 (centres unmarked) [V87, racephedrine hydrochloride]	–	synergized	variability enhancers
CC(C)(CO)[C@@H](O)C(=O)NCCCO [V90, dexpanthenol]	–	synergized	variability enhancers
CCCc1nc(C)c2c(=O)[nH]c(-c3cc(S(=O)(=O)N4CCN(CC)CC4)ccc3OCC)nn12 [V91, vardenafil hydrochloride]	–	synergized	variability enhancers
COc1ccccc1O [V92, guaiacol]	–	synergized	variability enhancers
COCCCOc1ccnc(C[S+]([O-])c2nc3ccccc3[nH]2)c1C (centres unmarked) [V93, rabeprazole sodium]	–	synergized	variability enhancers
CCC(=O)O[C@]1(C(=O)CCl)[C@@H](C)C[C@H]2[C@@H]3CCC4=CC(=O)C=C[C@]4(C)[C@@]3(F)[C@@H](O)C[C@@]21C [V94, clobetasol propionate]	–	synergized	variability enhancers
COc1c(C)c2c(c(O)c1C/C=C(\C)CCC(=O)O)C(=O)OC2 [V95, mycophenolic acid]	–	synergized	variability enhancers
